In brackets after ≈: the same amount, converted by molar mass. Read-outs that look alike come from different tables or passages of the source. Marks after values point to notes of the source that are not given here.
Experiments:
M. smegmatis ΔEM-pMbtAtb [1] = assay: microbe, parasite or virus in culture; assay type: cell-based, Mycobacterium smegmatis; conditions: for MIC (μg/ml), mean / MIC (μg/ml), range: GASTD medium, three independent experiments
Msm ΔEM = assay type: cell-based, Mycobacterium smegmatis; conditions: GASTD + Fe medium
M. smegmatis ΔEM-pMbtAtb [2] = assay: Post-antibiotic effect (PAE) washout assay
Experimental: Cells from mid-log growth phase cultures of Msm ΔEM-pMbtAtb in GASTD medium (37° C., 170 rpm, OD600≈0.75) were harvested by centrifugation and washed in GASTD medium (3 times with I culture volume). The washed cells were resuspended in GASTD medium and transferred to U-bottom 96-well cell culture plates (Corning, Inc.) for inhibitor exposure at a cell density corresponding to OD600=1.0 (50 μL/well). […] Inhibitors were added from 10% DMSO stock solutions, with a final DMSO concentration of 1% in both inhibitor-exposed cultures and DMSO controls (no inhibitor). […] The 96-well plates were incubated for culture growth at 37° C. in a FLUOstar Optima microplate reader (BMG Labtech, Inc.), and OD600 readings were taken every 30 min following plate shaking (5 min, 200 rpm) for 5 days. The growth vs. time datasets were analyzed to determine the time at which cultures reached an exponential growth phase threshold of OD600=0.05 (≈5% of maximal growth) (FIG. 8). The time-to-threshold data were used to calculate PAE as the difference between the time-to-threshold values of the inhibitor-exposed culture and the control cultures (Stubbings, W. J., et al. (2004) J. Antimicrob. Chemother. 54, 139-143). Data presented are derived from three independent experiments.

MbtAtb = MbtAtb (Mycobacterium tuberculosis (strain ATCC 25618 / H37Rv), UniProt P71716); conditions: cited from earlier work
mammalian cells = conditions: cited from earlier work
Mtb = conditions: cited from earlier work
M. tuberculosis H37Rv = assay: Growth inhibition assay (Alamar Blue MIC) for M. tuberculosis H37Rv; assay type: cell-based, Mycobacterium tuberculosis; conditions: at least 90% inhibition, 7 days
[3] = system: MBT production in Msm ΔEM-pMbtAtb; assay type: cell-based, Mycobacterium smegmatis; conditions: FIG. 7, radio-TLC
Msm ΔE = assay type: cell-based, Mycobacterium smegmatis
Msm WT = assay: Growth inhibition microdilution assay, Msm WT; assay type: cell-based, Mycobacterium smegmatis
Msm ΔM = assay type: cell-based, Mycobacterium smegmatis
H10MbtA^opt (MbtAtb) [4] = target: T1, H10MbtA^opt (MbtAtb) (Mycobacterium tuberculosis (strain ATCC 25618 / H37Rv), UniProt P71716); assay: Progress curve analysis of H10MbtA^opt inhibition (HA-MesG assay); assay type: biochemical
H10MbtA^opt (MbtAtb) [5] = target: T1, H10MbtA^opt (MbtAtb); assay: biochemical
PPT/PNP coupling system = assay: Off-target control: effect on PPT/PNP coupling system of the HA-MesG assay; assay type: biochemical
Experimental: The adenylation activity of H10MbtA^opt and its inhibition were evaluated using a H10MbtA^opt-optimized variation of the hydroxylamine-7-methyl-6-thioguanosine (HA-MesG) spectrophotometric assay (Wilson, D. J., et al. (2010) Anal. Biochem. 404, 56-63). The assay was carried out in a 96-well plate format as previously reported (Davis, T. D., et al. (2016) Bioorg. Med. Chem. Lett. 26, 5340-5345). The assay reaction mixture was optimized for H10MbtAopt activity. Optimization experiments included evaluation of various concentrations of Tris·HCl (and pH), hydroxylamine, MesG, ATP, NaCl, MgCl2, glycerol, reducing agents (DTT and TCEP), and detergent (IGEPAL, CHAPS, and Triton-X100). Unless otherwise indicated for specific experiments, the optimized assay reaction mixture contained the following: 50 mM Tris·HCl, pH 8.0; 3 mM MgCl2; 0.5 mM DTT; 0.1 U purine nucleoside phosphorylase (PNP); 0.04 U inorganic pyrophosphatase (PPT); 450 mM hydroxylamine; 0.4 mM MesG; 1 mM ATP; 300 μM salicylic acid; 0.01% CHAPS buffer; 7.5% ultrapure glycerol; and H10MbtA^opt at concentrations noted for specific experiments. […] Reactions were preincubated for 10 min at 25° C. before being initiated by the addition of either salicylic acid for steady state kinetic analysis or H10MbtA^opt for progress curve analysis. The phosphorolysis of MesG was measured continuously at either regular 1-min intervals (for steady state kinetic analysis) or 25-sec intervals (for progress curves analysis) for up to 45 min, at 360 nm and 25° C. in a DTX 880 multimode detector microplate reader (Beckman Coulter, Inc.).

[6] = Table 8, GASTD + Fe medium, tested up to 64 μg/mL
[7] = Mycolicibacterium smegmatis, read-out: MIC (μg/ml), mean
[8] = IC50 (nM), H10MbtA^opt at 250 nM, two independent dose-response experiments
[9] = IC50, preliminary dose-response experiment (vi/vo vs. log[inhibitor]), FIG. 4A-C, single experiment, inhibition of H10MbtA^opt

T1 sequence (P71716 whole entry, added parts left off): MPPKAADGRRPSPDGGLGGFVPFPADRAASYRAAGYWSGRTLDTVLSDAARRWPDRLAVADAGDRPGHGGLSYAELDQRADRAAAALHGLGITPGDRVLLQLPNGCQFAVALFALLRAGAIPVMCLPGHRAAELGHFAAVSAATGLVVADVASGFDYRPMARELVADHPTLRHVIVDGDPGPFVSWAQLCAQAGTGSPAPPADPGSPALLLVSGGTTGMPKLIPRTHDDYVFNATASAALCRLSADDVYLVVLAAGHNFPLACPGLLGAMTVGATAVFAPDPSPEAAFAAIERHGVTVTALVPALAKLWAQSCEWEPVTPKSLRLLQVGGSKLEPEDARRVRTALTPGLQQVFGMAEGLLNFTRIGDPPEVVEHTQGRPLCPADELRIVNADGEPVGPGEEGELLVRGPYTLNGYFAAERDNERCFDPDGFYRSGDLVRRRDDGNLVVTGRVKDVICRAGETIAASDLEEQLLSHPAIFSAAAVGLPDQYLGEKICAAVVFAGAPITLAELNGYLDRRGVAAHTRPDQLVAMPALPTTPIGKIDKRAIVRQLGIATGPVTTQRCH
Sequence of MbtAtb (P71716 whole entry, looked up): as the sequence (P71716 whole entry, added parts left off) above

| Compound | MIC (M. smegmatis ΔEM-pMbtAtb [1]; [6]) | MIC (μg/ml), mean (M. smegmatis ΔEM-pMbtAtb [1]; Table 8) | MIC (μg/ml), range (M. smegmatis ΔEM-pMbtAtb [1]; Table 8) | PAE (M. smegmatis ΔEM-pMbtAtb [2]; 1 h exposure at 5 × MIC) | PAE (M. smegmatis ΔEM-pMbtAtb [2]; 1 h exposure at 50 × MIC) | PAE (M. smegmatis ΔEM-pMbtAtb [2]; 1 h exposure at 100 × MIC) | MIC (M. smegmatis ΔEM-pMbtAtb [1]; [7]) | Ki (H10MbtA^opt (MbtAtb) [4]) | IC50 (H10MbtA^opt (MbtAtb) [5]; [8]) | IC50 (H10MbtA^opt (MbtAtb) [5]; [9]) | Fractional velocity v1/v0 (PPT/PNP coupling system; [inhibitor] = 4 μM) | Fractional velocity v1/v0 (PPT/PNP coupling system; [inhibitor] = 40 µM) | other results |
| --- | --- | --- | --- | --- | --- | --- | --- | --- | --- | --- | --- | --- | --- |
| 5′-O—[N-salicylsulfamoyl]adenosine [compound 1] | >64 µg/mL | 0.83 ± 8.17 µg/mL | 0.5-1.0^b μg/ml | 9.4 ± 1.6 h | 14.2 ± 0.9 h | 34.5 ± 1.8 h | – | – | – | – | – | – | MIC (M. smegmatis ΔEM-pMbtAtb [1]; Table 7, Msm ΔEM-pMbtAtb (−/+), GASTD + Fe medium): >1000 µg/mL; MIC (M. smegmatis ΔEM-pMbtAtb [1]; Table 7, Msm ΔEM-pMbtAtb (−/+), GASTD medium (Fe-limiting)): 0.5 to 1.0 µg/mL; MIC (Msm ΔEM): >1000 µg/mL; Inhibition of MbtAtb (previous in vitro studies) (MbtAtb): potent, selective, tight-binding inhibitor; Cytotoxicity against mammalian cells (mammalian cells): not cytotoxic; Mtb growth in the mouse lung (Mtb; monotherapy at 5.6 or 16.7 mg/kg): significant reduction of Mtb growth in the mouse lung; Dose at which in vivo toxicity was observed (Mtb; mouse): ≥ 16.7 mg/kg; MIC (M. tuberculosis H37Rv; GAST-D + Fe medium (100 μM FeCl3)): 0.5 to 1.0 µg/mL; MIC (M. tuberculosis H37Rv; GAST-D medium): 0.125 to 0.25 µg/mL; Effect on MBT production [3]: inhibited MBT production; MIC (Msm ΔE; GASTD + Fe medium): >1000 µg/mL; MIC (Msm ΔE; GASTD medium (Fe-limiting)): 0.5 to 1.0 µg/mL; MIC (Msm WT; GASTD + Fe medium): >1000 µg/mL; MIC (Msm WT; GASTD medium (Fe-limiting)): >1000 µg/mL; MIC (Msm ΔM; GASTD + Fe medium): >1000 µg/mL; MIC (Msm ΔM; GASTD medium (Fe-limiting)): >1000 µg/mL |
| CN(C[C@H]1O[C@@H](n2cnc3c(N)ncnc32)[C@H](O)[C@@H]1O)S(=O)(=O)NC(=O)c1ccccc1O [4b, N—(N-(((2R,3S,4R,5R)-5-(6-Amino-9H-purin-9-yl)-3,4-dihydroxytetrahydrofuran-2-yl)-methyl)-N-methylsulfamoyl)-2-hydroxybenzamide] | – | – | 0.5 to 1.0 µg/mL | 13.4 ± 2.6 h | 17.4 ± 4.7 h | 10.4 ± 2.2 h | 0.83 ± 0.17 µg/mL (≈ 1.73 µM) | 0.159 ± 0.0081 µM | 175 ± 4.3 nM | 179 nM | – | – | – |
| COc1ncnc2c1ncn2[C@@H]1O[C@H](CNS(=O)(=O)NC(=O)c2ccccc2O)[C@@H](O)[C@H]1O [compound 6, N—(N-(((2R,3S,4R,5R)-3,4-Dihydroxy-5-(6-methoxy-9H-purin-9-yl)tetrahydrofuran-2-yl)methyl)sulfamoyl)-2-hydroxybenzamide] | >64 µg/mL | – | 4.0 to 8.0 µg/mL | – | – | – | 5.33 ± 1.33 µg/mL (≈ 11.1 µM) | 0.277 ± 0.0122 µM | 289 ± 16.4 nM | 273 nM | 1.00 | 1.00 | MIC (M. tuberculosis H37Rv; Mycobacterium tuberculosis, H37RV, 168 h, GAST-D + Fe medium (100 μM FeCl3), read-out: MIC): 0.5 to 1 µg/mL; MIC (M. tuberculosis H37Rv; Mycobacterium tuberculosis, H37RV, 168 h, GAST-D medium, read-out: MIC): 0.125 to 0.25 µg/mL (≈ 0.26 to 0.52 µM); Mechanism of inhibition from progress curves (H10MbtA^opt (MbtAtb) [4]; time-dependent inhibition of H10MbtAopt): slow-onset inhibitors; Inhibitor behavior (IC50≈½ [E]) (H10MbtA^opt (MbtAtb) [5]; HA-MesG assay): tight-binding inhibitor behavior |
| Nc1ncnc2c1ncn2[C@@H]1OC(CNS(=O)(=O)NC(=O)c2ccccc2O)[C@@H](O)[C@H]1O (some centres unmarked) [4a, salicyl-AMSN] | >64 µg/mL | 1.00 ± 0 µg/mL (≈ 2.15 µM) | 1.0 µg/mL (≈ 2.15 µM) | 10.6 ± 2.7 h | 18.7 ± 1.3 h | 23.1 ± 3.1 h | – | – | – | – | 0.94 | 0.96 | Ki (H10MbtA^opt (MbtAtb) [4]; H10MbtA^opt 1 μM, inhibitor 4,000-1,041 nM, minimum of five independent experiments, read-out: Ki^app): 0.295 ± 0.0239 µM; IC50 (H10MbtA^opt (MbtAtb) [5]; H10MbtA^opt at 250 nM, two independent dose-response experiments, read-out: IC50): 246 ± 2.9 nM |
| O=C(NS(=O)(=O)O)c1ccccc1O [compound 8, salicyl-sulfamate] | – | – | – | – | – | – | – | – | – | – | – | – | IC50 (H10MbtA^opt (MbtAtb) [5]; IC50 (mM), effect on the MbtAtb-dependent signal in the HA-MesG assay, salicyl-AMS fragments, nonspecific inhibition control): ~1e+06 nM |

From patent publication US12435088B2, “Salicyl-adenosinemonosulfamate analogs and uses thereof” (priority 2018, dated 2025)
